Target: SARS-CoV2-Mpro (Severe acute respiratory syndrome coronavirus 2 (2019-nCoV) (SARS-CoV-2), UniProt P0DTD1)
Assay: Primary assay: SARS-CoV2-Mpro enzymatic activity inhibition
Format: biochemical
Settings: enzyme preincubated with compound for 20 min; slope of linear portion of signal
Procedure: Example A. Primary Assay Used to Determine Potency of SARS-CoV2-Mpro Enzymatic Activity Inhibition
• (1) Deliver 2× Enzyme • (2) Deliver buffer into No Enzyme wells • (3) Deliver compounds in 100% DMSO by using Acoustic technology (Echo550; nanoliter range) • (4) Incubate for 20 min • (5) Deliver 2× Substrate to initiate the reaction • (6) Spin & shake, start measuring in EnVision at rt; 5 min interval for 25 (2 hours) • (7) Analyze data by taking slope (signal/time) of linear portion of measurement • (8) Slope is calculated by using Excel, and curve fits are performed using Prism software.
The % inhibition was then used to calculate the IC50 values. The IC50 values are shown in Table A, wherein “A” corresponds to IC50<10.0 nm, “B” corresponds to 10.0 nm≤IC50<50.0 nm, “C” corresponds to 50.0 nm≤IC50<100.0 nm, “D” corresponds to 100.0 nm≤IC50<500.0 nm, and “E” corresponds to 500.0 nm≤IC50<1000.0 nm, and “F” corresponds to 1000.0 nm≤IC50.

SMILES	IC50 [nM]
CC(C)(C)[C@H](NC(=O)C(F)(F)F)C(=O)N1C[C@H]2[C@H]([C@H]1C(=O)N[C@H](C#N)CC1C(=O)Nc3cc(Cl)ccc31)C2(C)C (stereo partly drawn) [Compound 219, (1S,2S,5S)-N-[(1S)-2-(6-chloro-2-oxo-indolin-3-yl)-1-cyano-ethyl]-3-[(2S)-3,3-dimethyl-2-[(2,2,2-trifluoroacetyl)amino]butanoyl]-6,6-dimethyl-3-azabicyclo[3.1.0]hexane-2-carboxamide]	10 to 50
COC(=O)N[C@H](C(=O)N1C[C@H]2C([C@H]1C(=O)N[C@H](C#N)CC1C(=O)Nc3ccccc31)C2(C)C)C(C)(C)C (stereo in doubt) [Compound 243, Methyl N-[(1S)-1-[(1S)-2-[[(1S)-1-cyano-2-(2-oxoindolin-3-yl)ethyl]carbamoyl]-6,6-dimethyl-3-azabicyclo[3.1.0]hexane-3-carbonyl]-2,2-dimethyl-propyl]carbamate]	< 10
CC(C)(C)[C@H](NS(=O)(=O)CC(F)(F)F)C(=O)N1C[C@H]2C([C@H]1C(=O)N[C@H](C#N)C[C@@H]1CCNC1=O)C2(C)C (stereo in doubt) [Compound 209, (1R,2S,5S)—N-[(1S)-1-cyano-2-[(3S)-2-oxopyrrolidin-3-yl]ethyl]-3-[(2S)-3,3-dimethyl-2-(2,2,2-trifluoroethylsulfonylamino)butanoyl]-6,6-dimethyl-3-azabicyclo[3.1.0]hexane-2-carboxamide]	10 to 50
CC(C)(C)[C@H](NC(=O)C(F)(F)F)C(=O)N1C[C@H]2C([C@H]1C(=O)N[C@H](C#N)CC1C(=O)Nc3cc(Br)ccc31)C2(C)C (stereo in doubt) [Compound 233, (1S,2S,5S)-N-[(1S)-2-(6-bromo-2-oxo-indolin-3-yl)-1-cyano-ethyl]-3-[(2S)-3,3-dimethyl-2-[(2,2,2-trifluoroacetyl)amino]butanoyl]-6,6-dimethyl-3-azabicyclo[3.1.0]hexane-2-carboxamide]	50 to 100
CC(C)(C)[C@H](NC(=O)C(F)(F)F)C(=O)N1C[C@H]2C(C1C(=O)N[C@H](C#N)CC1(F)C(=O)Nc3ccccc31)C2(C)C (stereo in doubt) [Compound 228, (1S,2S,5S)-N-[(1S)-1-cyano-2-(3-fluoro-2-oxo-indolin-3-yl)ethyl]-3-[(2S)-3,3-dimethyl-2-[(2,2,2-trifluoroacetyl)amino]butanoyl]-6,6-dimethyl-3-azabicyclo[3.1.0]hexane-2-carboxamide]	10 to 50
Cc1ccc2c(c1)C(C[C@@H](C#N)NC(=O)[C@@H]1[C@H]3[C@H](CN1C(=O)[C@@H](NC(=O)C(F)(F)F)C(C)(C)C)C3(C)C)C(=O)N2 (stereo partly drawn) [Compound 220, (1S,2S,5S)-N-[(1S)-1-cyano-2-(5-methyl-2-oxo-indolin-3-yl)ethyl]-3-[(2S)-3,3-dimethyl-2-[(2,2,2-trifluoroacetyl)amino]butanoyl]-6,6-dimethyl-3-azabicyclo[3.1.0]hexane-2-carboxamide]	10 to 50
CC(C)(C)[C@H](NS(C)(=O)=O)C(=O)N1C[C@H]2C([C@H]1C(=O)N[C@H](C#N)C[C@@H]1C(=O)Nc3ccccc31)C2(C)C (stereo in doubt) [Compound 238, (1S,2S,5S)-N-[(1S)-1-cyano-2-(2-oxoindolin-3-yl)ethyl]-3-[(2S)-2-(methanesulfonamido)-3,3-dimethyl-butanoyl]-6,6-dimethyl-3-azabicyclo[3.1.0]hexane-2-carboxamide]	< 10
CC(C)(C)[C@H](NC(=O)C(F)(F)F)C(=O)N1C[C@H]2[C@H]([C@H]1C(=O)NC(C#N)CC1C(=O)Nc3ccccc31)C2(C)C (stereo partly drawn) [Compound 226, (1S,2S,5S)—N-[1-cyano-2-(2-oxoindolin-3-yl)ethyl]-3-[(2S)-3,3-dimethyl-2-[(2,2,2-trifluoroacetyl)amino]butanoyl]-6,6-dimethyl-3-azabicyclo[3.1.0]hexane-2-carboxamide]	< 10
